Results reported in patent US20020052295A1, “Diacyl derivatives of propylene diamine having herbicidal activity” (priority 1999, published 2002).

Experiments:
SOLNI [1] = assay: Pre-emergence herbicidal activity on SOLNI (black nightshade); type: in vivo, Solanum nigrum; settings: lowest tested rate giving 80% or greater inhibition, approx. 14 days after planting and treating, greenhouse
Summary of the method: (§1)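 Seeds sown on sterilized fertilized topsoil and covered, then compound in organic solvent diluted with 50:50 acetone/water applied to soil surface; greenhouse at 30/21° C. day/night with 0.64 cm overhead irrigation. Percent inhibition versus untreated plants scored about 14 days after treatment; GR80 derived, highest rate typically 1000 g/ha.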

AMARE [2] = assay: Pre-emergence herbicidal activity on AMARE (redroot pigweed); type: in vivo, Amaranthus retroflexus; settings: lowest tested rate giving 80% or greater inhibition, approx. 14 days after planting and treating, greenhouse
Summary of the method: as §1

DATST [3] = assay: Pre-emergence herbicidal activity on DATST (jimsonweed); type: in vivo, Datura stramonium; settings: lowest tested rate giving 80% or greater inhibition, approx. 14 days after planting and treating, greenhouse
Summary of the method: as §1

CHEAL [4] = assay: Pre-emergence herbicidal activity on CHEAL (common lambsquarters); type: in vivo, Chenopodium album; settings: lowest tested rate giving 80% or greater inhibition, approx. 14 days after planting and treating, greenhouse
Summary of the method: as §1

CONAR [5] = assay: Pre-emergence herbicidal activity on CONAR (field bindweed); type: in vivo, Convolvulus arvensis; settings: lowest tested rate giving 80% or greater inhibition, approx. 14 days after planting and treating, greenhouse
Summary of the method: as §1

POROL [6] = assay: Pre-emergence herbicidal activity on POROL (common purslane); type: in vivo, Portulaca oleracea; settings: lowest tested rate giving 80% or greater inhibition, approx. 14 days after planting and treating, greenhouse
Summary of the method: as §1

CIRAR [7] = assay: Pre-emergence herbicidal activity on CIRAR (canada thistle, seedling); type: in vivo, Cirsium arvense; settings: lowest tested rate giving 80% or greater inhibition, approx. 14 days after planting and treating, greenhouse
Summary of the method: as §1

ECHCG [8] = assay: Pre-emergence herbicidal activity on ECHCG (barnyardgrass); type: in vivo, Echinochloa crus-galli; settings: lowest tested rate giving 80% or greater inhibition, approx. 14 days after planting and treating, greenhouse
Summary of the method: as §1

PANMI [9] = assay: Pre-emergence herbicidal activity on PANMI (wild proso millet); type: in vivo, Panicum miliaceum; settings: lowest tested rate giving 80% or greater inhibition, approx. 14 days after planting and treating, greenhouse
Summary of the method: as §1

SORHA [10] = assay: Pre-emergence herbicidal activity on SORHA (johnsongrass, seedling); type: in vivo, Sorghum halepense; settings: lowest tested rate giving 80% or greater inhibition, approx. 14 days after planting and treating, greenhouse
Summary of the method: as §1

SETFA [11] = assay: Pre-emergence herbicidal activity on SETFA (giant foxtail); type: in vivo, Setaria faberi; settings: lowest tested rate giving 80% or greater inhibition, approx. 14 days after planting and treating, greenhouse
Summary of the method: as §1

PANDI [12] = assay: Pre-emergence herbicidal activity on PANDI (fall panicum); type: in vivo, Panicum dichotomiflorum; settings: lowest tested rate giving 80% or greater inhibition, approx. 14 days after planting and treating, greenhouse
Summary of the method: as §1

BRAPP [13] = assay: Pre-emergence herbicidal activity on BRAPP (broadleaf signalgrass); type: in vivo, Brachiaria platyphylla; settings: lowest tested rate giving 80% or greater inhibition, approx. 14 days after planting and treating, greenhouse
Summary of the method: as §1

DIGSA [14] = assay: Pre-emergence herbicidal activity on DIGSA (large crabgrass); type: in vivo, Digitaria sanguinalis; settings: lowest tested rate giving 80% or greater inhibition, approx. 14 days after planting and treating, greenhouse
Summary of the method: as §1

ABUTH [15] = assay: Post-emergence herbicidal activity on ABUTH (velvetleaf); type: in vivo, Abutilon theophrasti; settings: post-emergence spray; lowest tested rate with 80% or greater inhibition; about 14 days after treatment
Excerpt: (§2) All such uses, and the biological activity enabling such uses, are embraced by the term “herbicidal” herein. Tables 15 and 16 summarize results of tests conducted as described below to determine the pre-emergence herbicidal activity, in the form of a GR80 value, of illustrative compounds of this invention. […] Where herbicidal activity was evident but 80% inhibition was not achieved at the highest rate tested (typically 1000 g/ha), an asterisk (*) is shown in the following tables. Herbicidal activity evident in the form of symptoms of phytotoxicity, in the absence of at least 80% inhibition at any rate, is indicated in the tables by “phyto”. A blank cell in the following tables indicates no herbicidal or phytotoxic response at any rate tested.
(§3) In another set of tests, the post-emergence activity of compounds of this invention was evaluated on the cool season species listed above. The following procedure was used.
(§4) A pre-prepared topsoil mixture (described above) was placed in a pot and compacted to a depth of 1.0 to 1.25 cm from the top of the pot. Seeds of each of several monocotyledonous and dicotyledonous annual plant species were placed on top of the soil The seeds were covered with a mixture of 50% topsoil and 50% Rediearth™ in sufficient quantity to level-fill the pots. The pots were then placed on a greenhouse bench and subirrigated as needed until plants growing from the seeds had emerged and reached a suitable growth stage for post-emergence treatment, typically 9 to 14 days after planting.
(§5) A known amount of each test compound dissolved or suspended in an appropriate organic solvent was diluted with a 50:50 mix of acetone and water and applied to the plants by spraying with a standard spray nozzle in a spray volume of 3,100 l/ha at a spray pressure of […] (30 psig). Control plants were not sprayed.
(§6) After treatment the plants were placed in a greenhouse with a 30/21° C. day/night temperature regime and were subsequently watered as needed for growth. Approximately 14 days after treatment, the plants were observed and herbicidal efficacy recorded as percent inhibition by comparison with control plants.

SOLNI [16] = assay: Post-emergence herbicidal activity on SOLNI (black nightshade); type: in vivo, Solanum nigrum; settings: post-emergence spray; lowest tested rate with 80% or greater inhibition; about 14 days after treatment
Excerpt: as §2, §3, §4, §5, §6

AMARE [17] = assay: Post-emergence herbicidal activity on AMARE (redroot pigweed); type: in vivo, Amaranthus retroflexus; settings: post-emergence spray; lowest tested rate with 80% or greater inhibition; about 14 days after treatment
Excerpt: as §2, §3, §4, §5, §6

DATST [18] = assay: Post-emergence herbicidal activity on DATST (jimsonweed); type: in vivo, Datura stramonium; settings: post-emergence spray; lowest tested rate with 80% or greater inhibition; about 14 days after treatment
Excerpt: as §2, §3, §4, §5, §6

CHEAL [19] = assay: Post-emergence herbicidal activity on CHEAL (common lambsquarters); type: in vivo, Chenopodium album; settings: post-emergence spray; lowest tested rate with 80% or greater inhibition; about 14 days after treatment
Excerpt: as §2, §3, §4, §5, §6

CONAR [20] = assay: Post-emergence herbicidal activity on CONAR (field bindweed); type: in vivo, Convolvulus arvensis; settings: post-emergence spray; lowest tested rate with 80% or greater inhibition; about 14 days after treatment
Excerpt: as §2, §3, §4, §5, §6

POROL [21] = assay: Post-emergence herbicidal activity on POROL (common purslane; table head prints PORAL); type: in vivo, Portulaca oleracea; settings: post-emergence spray; lowest tested rate with 80% or greater inhibition; about 14 days after treatment
Excerpt: as §2, §3, §4, §5, §6

CIRAR [22] = assay: Post-emergence herbicidal activity on CIRAR (canada thistle, seedling); type: in vivo, Cirsium arvense; settings: post-emergence spray; lowest tested rate with 80% or greater inhibition; about 14 days after treatment
Excerpt: as §2, §3, §4, §5, §6

ECHCG [23] = assay: Post-emergence herbicidal activity on ECHCG (barnyardgrass); type: in vivo, Echinochloa crus-galli; settings: post-emergence spray; lowest tested rate with 80% or greater inhibition; about 14 days after treatment
Excerpt: as §2, §3, §4, §5, §6

PANMI [24] = assay: Post-emergence herbicidal activity on PANMI (wild proso millet); type: in vivo, Panicum miliaceum; settings: post-emergence spray; lowest tested rate with 80% or greater inhibition; about 14 days after treatment
SORHA [25] = assay: Post-emergence herbicidal activity on SORHA (johnsongrass, seedling); type: in vivo, Sorghum halepense; settings: post-emergence spray; lowest tested rate with 80% or greater inhibition; about 14 days after treatment
Excerpt: as §2, §3, §4, §5, §6

SETFA [26] = assay: Post-emergence herbicidal activity on SETFA (giant foxtail); type: in vivo, Setaria faberi; settings: post-emergence spray; lowest tested rate with 80% or greater inhibition; about 14 days after treatment
Excerpt: as §2, §3, §4, §5, §6

PANDI [27] = assay: Post-emergence herbicidal activity on PANDI (fall panicum); type: in vivo, Panicum dichotomiflorum; settings: post-emergence spray; lowest tested rate with 80% or greater inhibition; about 14 days after treatment
Excerpt: as §2, §3, §4, §5, §6

SORVU = assay: Post-emergence herbicidal activity on SORVU (shattercane); type: in vivo, Sorghum vulgare; settings: post-emergence spray; lowest tested rate with 80% or greater inhibition; about 14 days after treatment
Excerpt: as §2, §3, §4, §5, §6

BRAPP [28] = assay: Post-emergence herbicidal activity on BRAPP (broadleaf signalgrass); type: in vivo, Brachiaria platyphylla; settings: post-emergence spray; lowest tested rate with 80% or greater inhibition; about 14 days after treatment
Excerpt: as §2, §3, §4, §5, §6

DIGSA [29] = assay: Post-emergence herbicidal activity on DIGSA (large crabgrass); type: in vivo, Digitaria sanguinalis; settings: post-emergence spray; lowest tested rate with 80% or greater inhibition; about 14 days after treatment
ABUTH [30] = assay: Pre-emergence herbicidal activity on ABUTH (velvetleaf); type: in vivo, Abutilon theophrasti; settings: lowest tested rate giving 80% or greater inhibition, approx. 14 days after planting and treating, greenhouse
Summary of the method: as §1

| Structure (SMILES) | Pre-emergence activity (GR80) on SOLNI (SOLNI [1]) | Pre-emergence activity (GR80) on AMARE (AMARE [2]) [g/ha] | Pre-emergence activity (GR80) on DATST (DATST [3]) [g/ha] | Pre-emergence activity (GR80) on CHEAL (CHEAL [4]) [g/ha] | Pre-emergence activity (GR80) on CONAR (CONAR [5]) | Pre-emergence activity (GR80) on PORAL (POROL [6]) [g/ha] | Pre-emergence activity (GR80) on CIRAR (CIRAR [7]) [g/ha] | Pre-emergence activity (GR80) on ECHCG (ECHCG [8]) | Pre-emergence activity (GR80) on SORHA (SORHA [10]) | Pre-emergence activity (GR80) on SETFA (SETFA [11]) | Pre-emergence activity (GR80) on PANDI (PANDI [12]) | Pre-emergence activity (GR80) on BRAPP (BRAPP [13]) | Pre-emergence activity (GR80) on DIGSA (DIGSA [14]) | Post-emergence activity (GR80) ABUTH (ABUTH [15]) | Post-emergence activity (GR80) SOLNI (SOLNI [16]) | Post-emergence activity (GR80) AMARE (AMARE [17]) | Post-emergence activity (GR80) DATST (DATST [18]) | Post-emergence activity (GR80) CHEAL (CHEAL [19]) | Post-emergence activity (GR80) CONAR (CONAR [20]) | Post-emergence activity (GR80) PORAL (POROL [21]) | other results |
| --- | --- | --- | --- | --- | --- | --- | --- | --- | --- | --- | --- | --- | --- | --- | --- | --- | --- | --- | --- | --- | --- |
| C[C@H](CNC(=O)c1cccc(C(F)(F)F)c1)NC(=O)Oc1ccc(F)cc1 [Example 230] | * (Where herbicidal activity was evident but 80% inhibition was not achieved at the highest rate tested (typically 1000 g/ha), an asterisk (*) is shown) | 500 | 750 | 1000 | phyto | 500 | 750 | phyto | phyto | * (Where herbicidal activity was evident but 80% inhibition was not achieved at the highest rate tested (typically 1000 g/ha), an asterisk (*) is shown) | 1000 g/ha | phyto | 750 g/ha | [empty] | [empty] | phyto | phyto | phyto | phyto | phyto | Pre-emergence activity (GR80) on PANMI (PANMI [9]): phyto; Post-emergence activity (GR80) CIRAR (CIRAR [22]): [empty]; Post-emergence activity (GR80) ECHCG (ECHCG [23]): [empty]; Post-emergence activity (GR80) PANMI (PANMI [24]): [empty]; Post-emergence activity (GR80) SORHA (SORHA [25]): [empty]; Post-emergence activity (GR80) SETFA (SETFA [26]): [empty]; Post-emergence activity (GR80) PANDI (PANDI [27]): [empty]; Post-emergence activity (GR80) SORVU (SORVU): [empty]; Post-emergence activity (GR80) BRAPP (BRAPP [28]): [empty]; Post-emergence activity (GR80) DIGSA (DIGSA [29]): phyto |
| CC(CNC(=O)c1cccc(C(F)(F)F)c1)NC(=O)c1cccc(I)c1 (stereo not drawn) [Example 59] | phyto | 250 | 1000 | 500 | phyto | 125 | 1000 | phyto | phyto | 1000 g/ha | phyto | phyto | phyto | phyto | phyto | * (Where herbicidal activity was evident but 80% inhibition was not achieved at the highest rate tested (typically 1000 g/ha), an asterisk (*) is shown) | phyto | [empty] | phyto | [empty] | Pre-emergence activity (GR80) on ABUTH (ABUTH [30]): phyto; Post-emergence activity (GR80) CIRAR (CIRAR [22]): phyto; Post-emergence activity (GR80) ECHCG (ECHCG [23]): [empty]; Post-emergence activity (GR80) PANMI (PANMI [24]): [empty]; Post-emergence activity (GR80) SORHA (SORHA [25]): [empty]; Post-emergence activity (GR80) SETFA (SETFA [26]): [empty]; Post-emergence activity (GR80) PANDI (PANDI [27]): phyto; Post-emergence activity (GR80) SORVU (SORVU): [empty]; Post-emergence activity (GR80) BRAPP (BRAPP [28]): phyto; Post-emergence activity (GR80) DIGSA (DIGSA [29]): phyto |
